Species: Rattus norvegicus
Test: DrugMatrix - Regimen: Daily Repeat
Type: toxicity, organism-based, Sprague-Dawley
Design: regimen Daily Repeat, gender Male, age 6-8 weeks
Conditions: in vivo, po, route oral GAVAGE, vehicle 100 % WATER; for ABSOLUTE BASOPHIL / ABSOLUTE EOSINOPHIL / ABSOLUTE LYMPHOCYTE / ABSOLUTE MONOCYTE / ABSOLUTE SEGMENTED NEUTROPHIL / BASOPHIL / EOSINOPHIL / ERYTHROCYTE COUNT / HEMATOCRIT / HEMOGLOBIN / LEUKOCYTE COUNT / LYMPHOCYTE / MEAN CORPUSCULAR HEMOGLOBIN / MEAN CORPUSCULAR HEMOGLOBIN CONCENTRATION / MEAN CORPUSCULAR VOLUME / MONOCYTE / NEUTROPHIL / NUCLEATED RED BLOOD CELLS / PLATELET COUNT: tissue Blood; for ALANINE AMINOTRANSFERASE / ALBUMIN / ALKALINE PHOSPHATASE / ASPARTATE AMINOTRANSFERASE / BLOOD UREA NITROGEN / CARBON DIOXIDE / CHLORIDE / CHOLESTEROL / CREATINE PHOSPHOKINASE / CREATININE / GLUCOSE / LACTATE DEHYDROGENASE / LIPASE / PHOSPHORUS / POTASSIUM / SODIUM / TOTAL BILIRUBIN / TOTAL PROTEIN / URIC ACID: tissue Plasma
[1] = 0 mg/kg, 72 h, dose level Control, time 3 day
[2] = 0 mg/kg, 120 h, dose level Control, time 5 day
[3] = 10 mg/kg, 72 h, dose level Low, time 3 day

## CCN(CC)CC#CCOC(=O)C(O)(c1ccccc1)C1CCCCC1 (centres undefined) [OXYBUTYNIN]
[1]
  ABSOLUTE BASOPHIL: 0 CELLS/uL
  ABSOLUTE EOSINOPHIL: 24 CELLS/uL
  ABSOLUTE LYMPHOCYTE: 13105 CELLS/uL
  ABSOLUTE MONOCYTE: 76 CELLS/uL
  ABSOLUTE SEGMENTED NEUTROPHIL: 2145 CELLS/uL
  BASOPHIL: 0%
  EOSINOPHIL: 0.17%
  ERYTHROCYTE COUNT: 5.81 x10E6/uL
  HEMATOCRIT: 35.6%
  HEMOGLOBIN: 13.72 G/DL
  LEUKOCYTE COUNT: 15.35 x10E3/uL
  LYMPHOCYTE: 85.5%
  MEAN CORPUSCULAR HEMOGLOBIN: 23.62 pg
  MEAN CORPUSCULAR HEMOGLOBIN CONCENTRATION: 38.55 G/DL
  MEAN CORPUSCULAR VOLUME: 61.23 fL
  MONOCYTE: 0.5%
  NEUTROPHIL: 13.83%
  NUCLEATED RED BLOOD CELLS: 0 /100WBC
  PLATELET COUNT: 1189.83 x10E3/uL
  ALANINE AMINOTRANSFERASE: 48.67 u/L
  ALBUMIN: 4.27 G/DL
  ALKALINE PHOSPHATASE: 335 u/L
  ASPARTATE AMINOTRANSFERASE: 86.5 u/L
  BLOOD UREA NITROGEN: 14.33 mg/dL
  CARBON DIOXIDE: 29.17 mmol/L
  CHLORIDE: 99.83 MEQ/L
  CHOLESTEROL: 71.83 mg/dL
  CREATINE PHOSPHOKINASE: 506.83 u/L
  CREATININE: 0.18 mg/dL
  GLUCOSE: 162.17 mg/dL
  LACTATE DEHYDROGENASE: 264.5 u/L
  LIPASE: 9.67 u/L
  PHOSPHORUS: 11.92 mg/dL
  POTASSIUM: 6.55 MEQ/L
  SODIUM: 141.53 MEQ/L
  TOTAL BILIRUBIN: 0.18 mg/dL
  TOTAL PROTEIN: 5.87 G/DL
  URIC ACID: 1.67 mg/dL
[2]
  ABSOLUTE BASOPHIL: 0 CELLS/uL
  ABSOLUTE EOSINOPHIL: 25.33 CELLS/uL
  ABSOLUTE LYMPHOCYTE: 15680 CELLS/uL
  ABSOLUTE MONOCYTE: 92.33 CELLS/uL
  ABSOLUTE SEGMENTED NEUTROPHIL: 2102.33 CELLS/uL
  BASOPHIL: 0%
  EOSINOPHIL: 0.17%
  ERYTHROCYTE COUNT: 6 x10E6/uL
  HEMATOCRIT: 35.55%
  HEMOGLOBIN: 14.12 G/DL
  LEUKOCYTE COUNT: 17.9 x10E3/uL
  LYMPHOCYTE: 87.33%
  MEAN CORPUSCULAR HEMOGLOBIN: 23.65 pg
  MEAN CORPUSCULAR HEMOGLOBIN CONCENTRATION: 39.77 G/DL
  MEAN CORPUSCULAR VOLUME: 59.52 fL
  MONOCYTE: 0.5%
  NEUTROPHIL: 12%
  NUCLEATED RED BLOOD CELLS: 0.17 /100WBC
  PLATELET COUNT: 1325.67 x10E3/uL
  ALANINE AMINOTRANSFERASE: 56.17 u/L
  ALBUMIN: 4.23 G/DL
  ALKALINE PHOSPHATASE: 371.5 u/L
  ASPARTATE AMINOTRANSFERASE: 91 u/L
  BLOOD UREA NITROGEN: 15.33 mg/dL
  CARBON DIOXIDE: 27.67 mmol/L
  CHLORIDE: 99.5 MEQ/L
  CHOLESTEROL: 66.5 mg/dL
  CREATINE PHOSPHOKINASE: 518.5 u/L
  CREATININE: 0.18 mg/dL
  GLUCOSE: 143.33 mg/dL
  LACTATE DEHYDROGENASE: 238.83 u/L
  LIPASE: 9.33 u/L
  PHOSPHORUS: 10.68 mg/dL
  POTASSIUM: 6.5 MEQ/L
  SODIUM: 141.88 MEQ/L
  TOTAL BILIRUBIN: 0.18 mg/dL
  TOTAL PROTEIN: 6 G/DL
  URIC ACID: 1.63 mg/dL
[3]
  ABSOLUTE BASOPHIL: 0 CELLS/uL
  ABSOLUTE EOSINOPHIL: 0 CELLS/uL
  ABSOLUTE LYMPHOCYTE: 11373.67 CELLS/uL
  ABSOLUTE MONOCYTE: 168.67 CELLS/uL
  ABSOLUTE SEGMENTED NEUTROPHIL: 2324.33 CELLS/uL
  BASOPHIL: 0%
  EOSINOPHIL: 0%
  ERYTHROCYTE COUNT: 5.85 x10E6/uL
  HEMATOCRIT: 35.5%
  HEMOGLOBIN: 13.87 G/DL
  LEUKOCYTE COUNT: 13.87 x10E3/uL
  LYMPHOCYTE: 82.33%
  MEAN CORPUSCULAR HEMOGLOBIN: 23.77 pg
  MEAN CORPUSCULAR HEMOGLOBIN CONCENTRATION: 39.1 G/DL
  MEAN CORPUSCULAR VOLUME: 60.83 fL
  MONOCYTE: 1.33%
  NEUTROPHIL: 16.33%
  NUCLEATED RED BLOOD CELLS: 0 /100WBC
  PLATELET COUNT: 1157.33 x10E3/uL
  ALANINE AMINOTRANSFERASE: 50 u/L
  ALBUMIN: 4.03 G/DL
  ALKALINE PHOSPHATASE: 314.33 u/L
  ASPARTATE AMINOTRANSFERASE: 86 u/L
  BLOOD UREA NITROGEN: 13.67 mg/dL
  CARBON DIOXIDE: 28.33 mmol/L
  CHLORIDE: 99.33 MEQ/L
  CHOLESTEROL: 57.67 mg/dL
  CREATINE PHOSPHOKINASE: 426.33 u/L
  CREATININE: 0.12 mg/dL
  GLUCOSE: 150.67 mg/dL
  LACTATE DEHYDROGENASE: 120 u/L
  LIPASE: 9 u/L
  PHOSPHORUS: 12.43 mg/dL
  POTASSIUM: 6.97 MEQ/L
  SODIUM: 141.47 MEQ/L
  TOTAL BILIRUBIN: 0.17 mg/dL
  TOTAL PROTEIN: 5.57 G/DL
  URIC ACID: 1.97 mg/dL

Reference: ChEMBL document CHEMBL3885881, “DrugMatrix”
